Measurements from patent publication EP0326329B1, “Quinazoline derivatives useful as insecticides” (Dow AgroSciences LLC, priority 1988, dated 1989).

Legend:
Assay type in all cases: in vivo
[1] = system: Pyricularia oryzae (rice blast); settings: disease control rating, foliar spray, host rice; 400 ppm (+++ at 100 ppm)
[2] = system: Southern corn rootworm (Diabrotica undecimpuctata howardi Barber); experiment: Mite/insect screen, soil treatment (CRW); settings: Diabrotica, percent mortality, soil treatment, read-out: CRW RESULTS %; for mortality at 12 ppm: CRW rate 12.00 ppm; for mortality at 24 ppm: CRW rate 24.00 ppm
Outline: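 Five 2–3 instar larvae were placed on dry sandy soil with a presoaked corn seed after the soil had received 1 mL of compound solution and dried 6–12 h; cups were kept capped at 23°C. Mortality (%) and phytotoxicity were read after standard exposure. Formulation: acetone/alcohol with emulsifiers, water-diluted.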

[3] = system: Cercospora beticola (leaf spot); experiment: Greenhouse Test 1, foliar spray fungicide screen (LEAF SPOT), host sugar beet; settings: disease control rating, 400 ppm (+++ at 100 ppm)
[4] = system: Erysiphe graminis tritici (powdery mildew); experiment: Greenhouse Test 1, foliar spray fungicide screen (POWD MDEW), host wheat; settings: disease control rating, 400 ppm (+++ at 100 ppm)
[5] = system: Puccinia recondita tritici (leaf rust); experiment: Greenhouse Test 1, foliar spray fungicide screen (LEAF RUST), host wheat; settings: disease control rating, 400 ppm (+++ at 100 ppm)
[6] = system: Pseudoperonospora cubensis (downy mildew); experiment: Greenhouse Test 1, foliar spray fungicide screen (DOWN MDEW), host squash; settings: disease control rating, 400 ppm (+++ at 100 ppm)
[7] = system: melon aphids (Aphis gossypii Glover); experiment: Mite/insect screen, sprayed squash cotyledons (MA); settings: Aphis gossypii, percent mortality, read-out: MA RESULTS %; for mortality at 200 ppm: spray rate 200 ppm; for mortality at 400 ppm: spray rate 400 ppm
Outline: (§1)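 Compounds dissolved in acetone/alcohol with TOXIMUL R/S emulsifiers, diluted with water to test concentrations, and sprayed to runoff on both leaf surfaces at 10 psi, then dried 1 h. Excised treated squash leaves given southern armyworm larvae; aphid and spider mite tests on sprayed squash cotyledons. Percent mortality and phytotoxicity scored after standard exposure.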

[8] = system: Septoria tritici (leaf blotch); experiment: Greenhouse Test 1, foliar spray fungicide screen (LEAF BLOT), host wheat; settings: disease control rating, 400 ppm (+++ at 100 ppm)
[9] = system: southern armyworm (Spodopetra eridania Cramer); experiment: Mite/insect screen, sprayed squash leaves (SAW); settings: Spodoptera eridania, percent mortality, read-out: SAW RESULTS %; for mortality at 200 ppm: spray rate 200 ppm; for mortality at 400 ppm: spray rate 400 ppm
Outline: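 Steps: formulate compound in acetone/alcohol 50:50 carrying emulsifiers; dilute with water; spray leaves until runoff on upper and lower surfaces; air-dry one hour; for armyworm, excise two […] leaves into a dish of larvae; after exposure, score mortality and plant injury.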

[10] = system: Botrytis cinerea (gray mold); experiment: Greenhouse Test 1, foliar spray fungicide screen (GRAY MOLD), host grape berries; settings: disease control rating, 400 ppm (+++ at 100 ppm)
[11] = system: Venturia inaequalis (apple scab); experiment: Greenhouse Test 1, foliar spray fungicide screen (APPL SCAB), host apple seedling; settings: disease control rating, 400 ppm (+++ at 100 ppm)
[12] = system: Twospotted spider mites (Tetranychus urticae Koch); experiment: Mite/insect screen, sprayed squash cotyledons (SM); settings: Tetranychus urticae, percent mortality, read-out: SM RESULTS %; for mortality at 200 ppm: spray rate 200 ppm; for mortality at 400 ppm: spray rate 400 ppm
Outline: as §1

| Compound | RICE BLAST [1] | mortality at 12 ppm [2] [%] | mortality at 24 ppm [2] [%] | LEAF SPOT [3] | POWD MDEW [4] | LEAF RUST [5] | DOWN MDEW [6] | mortality at 200 ppm [7] [%] | mortality at 400 ppm [7] [%] | LEAF BLOT [8] | mortality at 200 ppm [9] [%] | mortality at 400 ppm [9] [%] | GRAY MOLD [10] | APPL SCAB [11] | mortality at 200 ppm [12] [%] | mortality at 400 ppm [12] [%] |
| --- | --- | --- | --- | --- | --- | --- | --- | --- | --- | --- | --- | --- | --- | --- | --- | --- |
| Cc1ccc(CCOc2ncnc3ccccc23)cc1 [Example 87, 4-[2-(4-methylphenyl)ethoxy]quinazoline] | +++ (+++ = 90-100% control at 100 ppm) | 0 | 0 | + (+ = 20-89% control at 400 ppm) | ++ (++ = 90-100% control at 400 ppm) | ++ (++ = 90-100% control at 400 ppm) | +++ (+++ = 90-100% control at 100 ppm) | 100 | 100 | - (- = 0-19% control at 400 ppm) | 0 | 50 | - (- = 0-19% control at 400 ppm) | - (- = 0-19% control at 400 ppm) | 90 | 90 |
| c1ccc(CCCc2ncnc3ccccc23)cc1 [Example 29, 4-(3-phenylpropyl)quinazoline] | +++ (+++ = 90-100% control at 100 ppm) | – | 0 | - (- = 0-19% control at 400 ppm) | + (+ = 20-89% control at 400 ppm) | ++ (++ = 90-100% control at 400 ppm) | ++ (++ = 90-100% control at 400 ppm) | – | 80 | - (- = 0-19% control at 400 ppm) | – | 0 | - (- = 0-19% control at 400 ppm) | + (+ = 20-89% control at 400 ppm) | – | 80 |
| CC(=O)N(CCc1ccc2ccccc2c1)c1ncnc2ccccc12 [Example 81, N-[2-(2-naphthyl)ethyl]-N-4-quinazolinylacetamide] | ++ (++ = 90-100% control at 400 ppm) | 0 | 0 | - (- = 0-19% control at 400 ppm) | + (+ = 20-89% control at 400 ppm) | + (+ = 20-89% control at 400 ppm) | + (+ = 20-89% control at 400 ppm) | 0 | 0 | - (- = 0-19% control at 400 ppm) | 0 | 0 | - (- = 0-19% control at 400 ppm) | + (+ = 20-89% control at 400 ppm) | 50 | 0 |
| Fc1ccc(CCOc2ncnc3ccccc23)cc1 [Example 84, 4-[2-(4-fluorophenyl)ethoxy]quinazoline] | ++ (++ = 90-100% control at 400 ppm) | 0 | 40 | - (- = 0-19% control at 400 ppm) | ++ (++ = 90-100% control at 400 ppm) | +++ (+++ = 90-100% control at 100 ppm) | ++ (++ = 90-100% control at 400 ppm) | 0 | 0 | + (+ = 20-89% control at 400 ppm) | 0 | 0 | - (- = 0-19% control at 400 ppm) | ++ (++ = 90-100% control at 400 ppm) | 0 | 0 |
| Clc1ccccc1OCCOc1ncnc2ccccc12 [Example 110, 4-[2-(2-chlorophenoxy)ethoxy]quinazoline] | + (+ = 20-89% control at 400 ppm) | 0 | 0 | - (- = 0-19% control at 400 ppm) | - (- = 0-19% control at 400 ppm) | ++ (++ = 90-100% control at 400 ppm) | + (+ = 20-89% control at 400 ppm) | 0 | 0 | - (- = 0-19% control at 400 ppm) | 0 | 0 | - (- = 0-19% control at 400 ppm) | - (- = 0-19% control at 400 ppm) | 0 | 0 |
| c1ccc(Oc2cccc(CCNc3ncnc4ccccc34)c2)cc1 [Example 38, N-[2-(3-phenoxyphenyl)ethyl]-4-quinazolinamine] | +++ (+++ = 90-100% control at 100 ppm) | 0 | 100 | + (+ = 20-89% control at 400 ppm) | ++ (++ = 90-100% control at 400 ppm) | +++ (+++ = 90-100% control at 100 ppm) | +++ (+++ = 90-100% control at 100 ppm) | 0 | 80 | ++ (++ = 90-100% control at 400 ppm) | 40 | 40 | - (- = 0-19% control at 400 ppm) | + (+ = 20-89% control at 400 ppm) | 0 | 90 |
